Target: T1, STING (Homo sapiens, UniProt Q86WV6, G230A/H232R/R293Q/R71H)
T1 construct: host or cells: THP-1 / THP1-Dual / THP1-Lucia ISG cells
Experiment: cGAMP dose-response IFN induction in the presence of increasing compound concentrations
Assay type: cell-based
Settings: FIGS. 16A-16D
Experimental: Compounds UT009, UT019, UT073 and UT122 were tested for their ability to interfere with cGAMP induced STING signaling. FIGS. 16A-16D show dose response plots of cGAMP induced IFN induction in the presence of increasing concentrations of each compound.
(§1) Compounds UT017, UT018, UT019 and UT0122 were tested for their ability to interfere with STING signaling. Interferon production in the presence of increasing concentrations of UT017, UT018, UT019 or UT0122 were measured in THP-1 cell lines under basal conditions. […] Compound UT0122 was further tested in THP1-Lucia™ ISG cells for interferon production at varying concentration, in the presence of an increasing dose of a STING agonist cGAMP.

T1 sequence (Q86WV6 whole entry R71H/G230A/H232R/R293Q): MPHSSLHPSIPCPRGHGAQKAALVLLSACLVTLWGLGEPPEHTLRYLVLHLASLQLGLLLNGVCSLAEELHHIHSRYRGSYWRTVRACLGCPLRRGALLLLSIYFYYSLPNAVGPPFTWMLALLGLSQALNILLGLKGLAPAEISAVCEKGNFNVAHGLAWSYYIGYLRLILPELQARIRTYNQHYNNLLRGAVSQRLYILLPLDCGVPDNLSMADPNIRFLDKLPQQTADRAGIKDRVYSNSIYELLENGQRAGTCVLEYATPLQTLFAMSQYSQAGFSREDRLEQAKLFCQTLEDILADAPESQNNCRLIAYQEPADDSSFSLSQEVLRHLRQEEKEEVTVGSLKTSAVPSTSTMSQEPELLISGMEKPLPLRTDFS

SMILES | cGAMP induced IFN induction in the presence of increasing concentrations of compound
CC1(C)C(=O)N(Cc2c(Cl)cccc2Oc2cc(F)cc(F)c2)c2cc(C(F)(F)F)ccc21 [UT073, 1-(2-chloro-6-(3,5-difluorophenoxy)benzyl)-3,3-dimethyl-6-(trifluoromethyl) indolin-2-one] | dose-dependent suppression of interferon production

Target: T1, STING
Experiment: STING pathway activity in THP1-Dual/THP-1 cells upon cGAMP or MSA-2 stimulation (luciferase/interferon readout)
Assay type: cell-based
Settings: 10 μM compound; cGAMP (100 μM) or MSA-2 (10 μM) stimulation; THP-1 cells
Text: (§2) Methods of measuring STING activity and by extension, the activity of the compounds discussed herein, are known in the art. As an example, the STING pathway activity may be evaluated using reporter cell lines where a reporter gene (i.e., luciferase, GFP) is expressed under direct or indirect control of interferon response elements. For example, in an exemplary embodiment, the STING pathway can be measured using THP1-Dual™ cells (InvivoGen) which express the Lucia gene (a secreted luciferase reporter gene) under the control of an ISG54 minimal promoter in conjunction with five IFN-stimulated response elements. The STING pathway, when activated, stimulates interferon release which, in this model, will increase luciferase expression in a detectable manner. When inhibited, interferon release will be decreased, reducing luciferase expression in a detectable manner. The compounds can optionally be tested in the presence of external stimulation (i.e., using cGAMP, a natural agonist of STING, or MSA-2).
The STING pathway activity was evaluated in THP1-Dual™ cells (Invivogen). […] After incubating at 37° C. for 16 hours, the luciferase activity was measured by QUANTI-Luc™ (Invivogen).

SMILES | inhibition at 10 µM [%]
CC1(C)C(=O)N(Cc2c(Cl)cccc2Oc2cc(F)cc(F)c2)c2cc(C(F)(F)F)ccc21 [UT073, 1-(2-chloro-6-(3,5-difluorophenoxy)benzyl)-3,3-dimethyl-6-(trifluoromethyl) indolin-2-one] | < 50
CC1(C)C(=O)N(Cc2c(F)cccc2C(N)=O)c2cc(C(=O)NCc3c(F)cc(F)cc3F)ccc21 [UT126, 1-(2-carbamoyl-6-fluorobenzyl)-3,3-dimethyl-2-oxo-N-(2,4,6-trifluorobenzyl) indoline-6-carboxamide] | < 50
CC1(C)C(=O)N(Cc2c(F)cc(F)cc2F)c2cc(C(=O)NCc3cc4ccccc4[nH]3)ccc21 [UT141, N-((1H-indol-2-yl)methyl)-3,3-dimethyl-2-oxo-1-(2,4,6-trifluorobenzyl)indoline-6-carboxamide] | > 50
CC1(C)C(=O)N(Cc2c(F)cccc2C(F)(F)F)c2cc(C(=O)NCc3cc4ccccc4[nH]3)ccc21 [UT142, N-((1H-indol-2-yl)methyl)-1-(2-fluoro-6-(trifluoromethyl)benzyl)-3,3-dimethyl-2-oxoindoline-6-carboxamide] | > 50
CC1(C)C(=O)N(Cc2c(Oc3cc(F)cc(F)c3)cccc2C(F)(F)F)c2cc(C(F)(F)F)ccc21 [UT149, 1-(2-(3,5-difluorophenoxy)-6-(trifluoromethyl)benzyl)-3,3-dimethyl-6-(trifluoromethyl)indolin-2-one] | < 50
Cc1nn(C)c(CN2C(=O)C(C)[C@@H](C)c3ccc(C(=O)NCc4cc5ccccc5[nH]4)cc32)c1Br (stereo partly drawn) [UT151, (4R)-N-((1H-indol-2-yl)methyl)-1-((4-bromo-1,3-dimethyl-1H-pyrazol-5-yl)methyl)-3,4-dimethyl-2-oxo-1,2,3,4-tetrahydroquinoline-7-carboxamide] | < 50

Further lines, results first:

inhibition at 10 µM [%] | SMILES
< 50 | CC1C(=O)N(Cc2c(F)cccc2C(F)(F)F)c2cc(C(=O)NCc3c(F)cc(F)cc3F)ccc2[C@@H]1C (stereo partly drawn) [UT153, (4R)-1-(2-fluoro-6-(trifluoromethyl)benzyl)-3,4-dimethyl-2-oxo-N-(2,4,6-trifluorobenzyl)-1,2,3,4-tetrahydroquinoline-7-carboxamide]
> 50 | CC1C(=O)N(Cc2c(F)cc(F)cc2F)c2cc(C(=O)NCc3cc4ccccc4[nH]3)ccc2[C@@H]1C (stereo partly drawn) [UT156, (4R)-N-((1H-indol-2-yl)methyl)-3,4-dimethyl-2-oxo-1-(2,4,6-trifluorobenzyl)-1,2,3,4-tetrahydroquinoline-7-carboxamide]
< 50 | Cc1nn(C)c(CN2C(=O)C(C)(C)c3ccc(C(=O)NCc4cc5ccccc5[nH]4)cc32)c1C [UT157, N-((1H-indol-2-yl)methyl)-3,3-dimethyl-2-oxo-1-((1,3,4-trimethyl-1H-pyrazol-5-yl)methyl)indoline-6-carboxamide]
< 50 | CC1C(=O)N(Cc2c(F)cccc2C(F)(F)F)c2cc(C(=O)NCc3cc4ccccc4[nH]3)ccc2[C@@H]1C (stereo partly drawn) [UT158, (4R)-N-((1H-indol-2-yl)methyl)-1-(2-fluoro-6-(trifluoromethyl)benzyl)-3,4-dimethyl-2-oxo-1,2,3,4-tetrahydroquinoline-7-carboxamide]
< 50 | Cc1nn(C)c(CN2C(=O)C(C)[C@@H](C)c3ccc(C(=O)NCc4cc5ccccc5[nH]4)cc32)c1C (stereo partly drawn) [UT160, (4R)-N-((1H-indol-2-yl)methyl)-3,4-dimethyl-2-oxo-1-((1,3,4-trimethyl-1H-pyrazol-5-yl)methyl)-1,2,3,4-tetrahydroquinoline-7-carboxamide]
> 50 | CC1(C)C(=O)N(Cc2c(Oc3cc(F)cc(F)c3)cccc2C(F)(F)F)c2cc(C#N)ccc21 [UT200, 1-(2-(3,5-difluorophenoxy)-6-(trifluoromethyl)benzyl)-3,3-dimethyl-2-oxoindoline-6-carbonitrile]
< 50 | CC1(C)C(=O)N(Cc2c(Oc3cc(F)cc(F)c3)cccc2C(F)(F)F)c2ccc(C#N)cc21 [UT201, 1-(2-(3,5-difluorophenoxy)-6-(trifluoromethyl)benzyl)-3,3-dimethyl-2-oxoindoline-5-carbonitrile]
< 50 | CC1(C)C(=O)N(Cc2c(Oc3cc(F)cc(F)c3)cccc2C(F)(F)F)c2ccc(C(F)(F)F)cc21 [UT202, 1-(2-(3,5-difluorophenoxy)-6-(trifluoromethyl)benzyl)-3,3-dimethyl-5-(trifluoromethyl)indolin-2-one]
> 50 | CC1(C)C(=O)N(Cc2c(Oc3cc(F)cc(F)c3)cccc2C(F)(F)F)c2cc3c(cc21)OCO3 [UT203, 5-(2-(3,5-difluorophenoxy)-6-(trifluoromethyl)benzyl)-7,7-dimethyl-5,7-dihydro-6H-[1,3]dioxolo[4,5-f]indol-6-one]

Same assay, conditions: THP-1 cells; 10 μM MSA2; increasing concentrations of compound

Induction of interferon production in the presence of MSA2 | SMILES
inhibited in a dose dependent manner | CC1(C)C(=O)N(Cc2c(F)cc(F)cc2F)c2cc(C(=O)NCc3cc4ccccc4[nH]3)ccc21 [UT141, N-((1H-indol-2-yl)methyl)-3,3-dimethyl-2-oxo-1-(2,4,6-trifluorobenzyl)indoline-6-carboxamide]
inhibited in a dose dependent manner | CC1(C)C(=O)N(Cc2c(F)cccc2C(F)(F)F)c2cc(C(=O)NCc3cc4ccccc4[nH]3)ccc21 [UT142, N-((1H-indol-2-yl)methyl)-1-(2-fluoro-6-(trifluoromethyl)benzyl)-3,3-dimethyl-2-oxoindoline-6-carboxamide]
inhibited in a dose dependent manner | Cc1nn(C)c(CN2C(=O)C(C)(C)c3ccc(C(=O)NCc4cc5ccccc5[nH]4)cc32)c1C [UT157, N-((1H-indol-2-yl)methyl)-3,3-dimethyl-2-oxo-1-((1,3,4-trimethyl-1H-pyrazol-5-yl)methyl)indoline-6-carboxamide]

Target: T1, STING
Experiment: Interferon production in THP-1 cells under basal conditions (no external stimulation)
Assay type: cell-based
Settings: 32 μM compound; no external stimulation; THP-1 cells
Text: as §2, §1
The STING pathway activity was evaluated in THP1-Dual™ cells (Invivogen). 1.5×10^5 THP1-Dual™ cells were seeded in 96-well plates and treated with the test compound followed by cGAMP (100 uM) or MSA-2 (10 uM, Science 2020, 369, eaba6098) 2 hours later. After incubating at 37° C. for 16 hours, the luciferase activity was measured by QUANTI-Luc™ (Invivogen).

Activity (inhibition under basal conditions) | inhibition at 32 µM [%] | SMILES
D* | – | C[C@@H](NC(=O)c1ccc2c(c1)N(Cc1c(F)cccc1Cl)C(=O)C2(C)C)c1c(F)cc(F)cc1F [UT065, (R)-1-(2-chloro-6-fluorobenzyl)-3,3-dimethyl-2-oxo-N-(1-(2,4,6-trifluorophenyl)ethyl) indoline-6-carboxamide]
D* | – | C[C@H](NC(=O)c1ccc2c(c1)N(Cc1c(F)cccc1Cl)C(=O)C2(C)C)c1c(F)cc(F)cc1F [UT066, (S)-1-(2-chloro-6-fluorobenzyl)-3,3-dimethyl-2-oxo-N-(1-(2,4,6-trifluorophenyl)ethyl) indoline-6-carboxamide]
– | < 50 | CC1(C)C(=O)N(Cc2c(Cl)cccc2OCc2cc(F)cc(F)c2)c2cc(C(F)(F)F)ccc21 [UT071a, 1-(2-chloro-6-((3,5-difluorobenzyl)oxy)benzyl)-3,3-dimethyl-6-(trifluoromethyl)indolin-2-one]
– | < 50 | CC1(C)C(=O)N(Cc2c(Cl)cccc2OCc2cc(F)cc(F)c2)c2cc(F)ccc21 [UT072, 1-(2-chloro-6-((3,5-difluorobenzyl)oxy)benzyl)-6-fluoro-3,3-dimethylindolin-2-one]
– | < 50 | CC1(C)C(=O)N(Cc2c(Cl)cccc2Oc2cc(F)cc(F)c2)c2cc(F)ccc21 [UT074, 1-(2-chloro-6-(3,5-difluorophenoxy)benzyl)-6-fluoro-3,3-dimethylindolin-2-one]
D* | – | CC1(C)C(=O)N(Cc2c(F)cc(F)cc2F)c2cc(C(=O)NCc3cc4ccccc4o3)ccc21 [UT114, N-(benzofuran-2-ylmethyl)-3,3-dimethyl-2-oxo-1-(2,4,6-trifluorobenzyl)indoline-6-carboxamide]
D* | – | CC1(C)C(=O)N(Cc2c(F)cccc2F)c2cc(-c3ncc(-c4c(F)cc(F)cc4F)o3)ccc21 [UT115, 1-(2,6-difluorobenzyl)-3,3-dimethyl-6-(5-(2,4,6-trifluorophenyl)oxazol-2-yl)indolin-2-one]
D* | – | CC1(C)C(=O)N(Cc2c(F)cccc2F)c2cc(-c3coc(-c4cccc(F)c4)n3)ccc21 [UT117, 1-(2,6-difluorobenzyl)-6-(2-(3-fluorophenyl)oxazol-4-yl)-3,3-dimethylindolin-2-one]
D* | – | CC1(C)C(=O)N(Cc2c(F)cccc2F)c2cc(-c3cn(-c4ccccc4)nn3)ccc21 [UT118, 1-(2,6-difluorobenzyl)-3,3-dimethyl-6-(1-phenyl-1H-1,2,3-triazol-4-yl)indolin-2-one]
D* | – | CC1(C)C(=O)N(Cc2c(F)cc(F)cc2F)c2cc(C(=O)NCc3cc4cc(F)c(F)cc4o3)ccc21 [UT120, N-((5,6-difluorobenzofuran-2-yl)methyl)-3,3-dimethyl-2-oxo-1-(2,4,6-trifluorobenzyl) indoline-6-carboxamide]
D* | – | Cc1nn(C)c(CN2C(=O)C(C)(C)c3ccc(C(=O)NCc4cc5ccccc5s4)cc32)c1Br [UT121, N-(benzo[b]thiophen-2-ylmethyl)-1-((4-bromo-1,3-dimethyl-1H-pyrazol-5-yl)methyl)-3,3-dimethyl-2-oxoindoline-6-carboxamide]

— patent US20250170120A1, “ALLOSTERIC STING MODULATORS AND METHODS OF USE” (THE BOARD OF REGENTS OF THE UNIVERSITY OF TEXAS SYSTEM, priority 2022, published 2025)
